The structures appear in SMILES notation.

In one assay the target is T1, Human HDAC7 (Homo sapiens, UniProt Q8WUI4).
T1 construct: (a.a. 518-end) with N-terminal GST tag; GST (N); host or cells: baculovirus expression system
T1 sequence (Q8WUI4 518-952 limits assumed): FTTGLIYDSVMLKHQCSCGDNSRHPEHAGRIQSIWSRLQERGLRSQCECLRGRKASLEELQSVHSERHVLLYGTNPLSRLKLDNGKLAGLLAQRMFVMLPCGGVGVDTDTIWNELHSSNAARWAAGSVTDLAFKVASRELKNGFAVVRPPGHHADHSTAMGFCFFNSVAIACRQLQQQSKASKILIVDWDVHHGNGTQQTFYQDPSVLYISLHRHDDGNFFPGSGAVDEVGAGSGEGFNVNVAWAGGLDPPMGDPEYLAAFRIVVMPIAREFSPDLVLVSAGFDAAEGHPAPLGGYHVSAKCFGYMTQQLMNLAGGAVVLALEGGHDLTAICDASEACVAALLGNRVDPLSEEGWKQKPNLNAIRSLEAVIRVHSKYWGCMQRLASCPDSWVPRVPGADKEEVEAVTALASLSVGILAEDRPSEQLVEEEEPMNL
The experiment in a line: HDAC7 biochemical assay, class IIa-specific substrate. Particulars: read-out: HDAC Isoform IC50 (nM) 7. In outline:
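Two-step fluorogenic readout: class IIa-selective trifluoroacetyl-lysine AMC substrate (50 μM) deacetylated by N-terminal GST-HDAC7 fragment (0.001 ng/ul), then digested by developer, Ex/Em 360/460. Reaction: 30 min, room temperature, Tris-HCl pH 8.0, NaCl/KCl/MgCl2, 1 mg/mL BSA, 1% DMSO.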

In a further assay the target is T2, Human HDAC8 (Homo sapiens, UniProt Q9BY41).
T2 construct: full length with C-terminal His tag, MW=42.6 kDa; His (C); host or cells: baculovirus expression system
T2 sequence (Q9BY41 1-377): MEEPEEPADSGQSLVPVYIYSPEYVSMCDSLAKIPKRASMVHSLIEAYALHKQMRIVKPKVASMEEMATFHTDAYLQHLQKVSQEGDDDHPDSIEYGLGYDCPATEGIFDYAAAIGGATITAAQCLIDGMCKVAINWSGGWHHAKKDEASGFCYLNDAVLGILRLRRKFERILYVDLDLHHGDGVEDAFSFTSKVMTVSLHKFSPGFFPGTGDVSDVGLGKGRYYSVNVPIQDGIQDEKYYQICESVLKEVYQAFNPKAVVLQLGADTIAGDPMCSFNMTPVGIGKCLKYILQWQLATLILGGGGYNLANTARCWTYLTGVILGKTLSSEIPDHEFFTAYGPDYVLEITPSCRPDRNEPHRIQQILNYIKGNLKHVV
The experiment in a line: HDAC8 biochemical assay, AMC-labeled peptide substrate. The settings on record: read-out: HDAC Isoform IC50 (nM) 8. In outline:
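Two-step fluorogenic readout: compounds and enzyme deacetylate 100 µM RHK(Ac)K(Ac)AMC for 2 h at 30° C (pH8.0 Tris buffer, BSA, 1% DMSO final), then developer releases AMC, read at 360/460 Ex/Em. Enzyme: 1 ng/ul full-length His-tagged human HDAC8 from baculovirus.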

The next assay concerns the target T3, Human HDAC2 (Homo sapiens, UniProt Q92769).
T3 construct: full length with C-terminal GST-tag; GST (C); host or cells: baculovirus expression system
The experiment in a line: HDAC2 biochemical assay, AMC-labeled peptide substrate. The settings on record: read-out: HDAC Isoform IC50 (nM) 2. In outline:
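Full-length human HDAC2 with C-terminal GST tag, baculovirus-expressed, at 0.07 ng/ul with 50 μM RHKK(Ac)AMC substrate in Tris-HCl pH8.0 buffer with BSA, 1% DMSO final. Incubated 1 hour at 30° C with compounds, then developer added; fluorescence read at 360/460 Ex/Em.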

T3 sequence (Q92769 whole entry): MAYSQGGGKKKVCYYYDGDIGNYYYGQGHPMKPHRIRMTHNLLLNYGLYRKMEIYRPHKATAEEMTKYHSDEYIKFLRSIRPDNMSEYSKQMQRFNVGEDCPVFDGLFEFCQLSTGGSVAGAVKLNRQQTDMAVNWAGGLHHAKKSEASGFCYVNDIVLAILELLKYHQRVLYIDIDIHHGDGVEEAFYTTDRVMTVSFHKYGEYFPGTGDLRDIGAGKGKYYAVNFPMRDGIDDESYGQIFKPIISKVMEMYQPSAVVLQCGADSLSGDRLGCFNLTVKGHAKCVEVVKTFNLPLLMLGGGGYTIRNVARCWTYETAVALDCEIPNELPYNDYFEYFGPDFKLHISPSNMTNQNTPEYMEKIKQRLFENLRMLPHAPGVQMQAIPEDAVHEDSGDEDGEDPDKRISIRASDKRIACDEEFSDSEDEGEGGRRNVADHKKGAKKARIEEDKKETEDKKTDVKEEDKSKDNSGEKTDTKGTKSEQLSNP

A word on the IC50: it is the concentration that inhibits the measured activity by half. As for `FC(F)(F)c1nc(-c2ccc(CN(c3ccncn3)c3cnccn3)s2)no1` [Example BZ, N-(Pyrazin-2-yl)-N-({5-[5-(trifluoromethyl)-1,2,4-oxadiazol-3-yl]thiophen-2-yl}methyl)pyrimidin-4-amine], the values for the IC50 at Human HDAC7, on Human HDAC8 and at Human HDAC2 were no more than 500 nM, no more than 10000 nM and greater than 10000 nM, respectively.
With `CS(=O)(=O)c1nccc(N(Cc2ccc(-c3noc(C(F)(F)F)n3)s2)c2cnccn2)n1` [Example CE, 2-Methanesulfonyl-N-(pyrazin-2-yl)-N-({5-[5-(trifluoromethyl)-1,2,4-oxadiazol-3-yl]thiophen-2-yl}methyl)pyrimidin-4-amine], the IC50 at Human HDAC7 is no more than 1000 nM.
Consider `FC(F)(F)c1nc(-c2ccc(CN(c3cncnc3)c3cnccn3)s2)no1` [Example CR, N-(Pyrazin-2-yl)-N-({5-[5-(trifluoromethyl)-1,2,4-oxadiazol-3-yl]thiophen-2-yl}methyl)pyrimidin-5-amine], for which the IC50 at Human HDAC7 was no more than 500 nM; at Human HDAC8, no more than 10000 nM; on Human HDAC2, greater than 10000 nM.
Regarding `FC(F)(F)c1ccc(N(Cc2ccc(-c3noc(C(F)(F)F)n3)s2)c2cnccn2)nn1` [Example DH, N-(Pyrazin-2-yl)-6-(trifluoromethyl)-N-({5-[5-(trifluoromethyl)-1,2,4-oxadiazol-3-yl]thiophen-2-yl}methyl)pyridazin-3-amine], the IC50 was no more than 10000 nM at Human HDAC7, no more than 10000 nM at Human HDAC8 and greater than 10000 nM on Human HDAC2.
For the compound `FC(F)(F)c1nc(-c2ccc(CN(c3cnccn3)c3ccc(N4CCCC4)nn3)s2)no1` [Example DI, N-(Pyrazin-2-yl)-6-(pyrrolidin-1-yl)-N-({5-[5-(trifluoromethyl)-1,2,4-oxadiazol-3-yl]thiophen-2-yl}methyl)pyridazin-3-amine], the IC50 at Human HDAC7 is no more than 1000 nM; at Human HDAC8 it was no more than 10000 nM; at Human HDAC2, greater than 10000 nM.
The corresponding values for `CS(=O)(=O)c1ccc(N(Cc2ccc(-c3noc(C(F)(F)F)n3)s2)c2cnccn2)nn1` [Example DL, 6-Methanesulfonyl-N-(pyrazin-2-yl)-N-({5-[5-(trifluoromethyl)-1,2,4-oxadiazol-3-yl]thiophen-2-yl}methyl)pyridazin-3-amine] are no more than 1000 nM, no more than 10000 nM and greater than 10000 nM.
The corresponding values for `FC(F)(F)c1nc(-c2ccc(CN(c3ccccn3)c3cnccn3)s2)no1` [Example V, N-(Pyridin-2-yl)-N-({5-[5-(trifluoromethyl)-1,2,4-oxadiazol-3-yl]thiophen-2-yl}methyl)pyrazin-2-amine] are no more than 10000 nM, greater than 10000 nM and greater than 10000 nM.

Values taken from patent US20210038607A1, “OXADIAZOLYLTHIOPHENE DERIVATIVES USEFUL AS HISTONE DEACETYLASE INHIBITORS” (Karus Therapeutics Limited, priority 2018, published 2021).
